Test results as given in patent US20060281791A1, “Methods of increasing proliferation of adult mammalian cardiomyocytes through p38 map kinase inhibition” (CHILDREN'S MEDICAL CENTER CORPORATION, priority 2005, published 2006).

Tests used:
adult cardiomyocytes = experiment: Ki67 staining of adult cardiomyocytes; assay type: cell-based, rat; details: 12 days of stimulation
Procedure: Animal experiments were performed in accordance with guidelines of Children's Hospital, Boston and UCLA. Ventricular cardiomyocytes from fetal (E19), 2-day-old (P2) and adult (250-350 g) Wistar rats (Charles River) were isolated as described with minor modifications (Engel et al. 1999; Engel et al. 2003). After digestion of fetal or neonatal hearts (0.14 mg/ml collagenase II (Invitrogen), 0.55 mg/ml pancreatin (Sigma)) cells were cultured in DMEM/F12 (GIBCO) containing 3 mM Na-pyruvate, 0.2% BSA, 0.1 mM ascorbic acid (Sigma), 0.5% Insulin-Transferrin-Selenium (100×), penicillin (100 U/ml), streptomycin (100 μg/ml), and 2 mM L-glutamine (GIBCO). […]
Staining was performed as described (Supplemental Table S3) (Engel et al. 1999; Engel et al. 2003). Immune complexes were detected with ALEXA 350, ALEXA 488 or ALEXA 594-conjugated secondary antibodies (1:200, Molecular Probes). […]
Eighteen to 40 hearts of 3 different litters were used for quantitative analyses of maximal areas. For immunofluorescence analyses 1,500 fetal or neonatal cardiomyocytes were counted. For adult cardiomyocyte analyses in vitro the following number of cells were counted: 500-2,000 for BrdU or Ki67, 9,000-25,000 for H3P, and 12,000-45,000 for aurora B. For in vivo MKK3bE and p38α knockout experiments 2 different litters were used. We counted 1,500-2,000 cells in each apex, left and right ventricle per heart. […]

[1] = tested on: myocardial infarction in adult rats; experiment: Thinning index (ventricular wall thinning) after myocardial infarction; assay type: in vivo, rat
Procedure: To determine whether p38 inhibition/FGF1 stimulation can induce cardiomyocyte proliferation in vivo and whether it has a positive effect on cardiac function after cardiac injury we created myocardial infarctions (MI) in adult rats (250 g) by coronary artery ligation. The p38 inhibitor SB203580 HCl or its vehicle, saline, were injected intraperitoneal every three days for the first month of the study. FGF1 or its carrier BSA was injected mixed with self-assembling peptides once into the infarct border zone immediately after coronary artery ligation. […] Animals were analyzed 24 hours, 2 weeks, and 3 month after surgery. […]
Ventricular wall thinning is an important parameter of heart function. Thus, we determined the thickness of the ventricular wall after injury. For this purpose we calculated the thinning index (ratio of minimal ventricular wall thickness to maximal thickness of the septum). […]
Scar formation was determined as fibrotic area/(fibrotic+non-fibrotic area) based on all sections. The thinning index is a ratio of the amount of wall thinning in the infarct normalized to the thickness of the septum and is calculated by dividing the minimal infarct wall thickness with maximal septal wall thickness (2 weeks: section 1 to 4, 3 month: section 1 to 6 from base).

[2] = tested on: myocardial infarction in adult rats; experiment: Vessel density in the scar area after myocardial infarction; assay type: in vivo, rat; details: rats after MI
Procedure: To determine whether p38 inhibition/FGF1 stimulation can induce cardiomyocyte proliferation in vivo and whether it has a positive effect on cardiac function after cardiac injury we created myocardial infarctions (MI) in adult rats (250 g) by coronary artery ligation. The p38 inhibitor SB203580 HCl or its vehicle, saline, were injected intraperitoneal every three days for the first month of the study. FGF1 or its carrier BSA was injected mixed with self-assembling peptides once into the infarct border zone immediately after coronary artery ligation. We injecting a total of 80 μl of 400 ng/ml FGF1, given at 3 different injection sites, into 400 mg of infarcted myocardium estimated to deliver a FGF 1 concentration to the cardiomyocytes of approximately 50 to 100 ng/ml. Animals were analyzed 24 hours, 2 weeks, and 3 month after surgery. […]
One possible explanation is the angiogenic effect of FGF1. To determine the effect of our treatments on vascularization we determined the vessel density in the scar area. […]
Hearts were embedded in tissue-freezing medium (Fisher) without fixation, frozen in 2-methylbutane (cooled in liquid nitrogen), stored at −80° C., and finally sectioned (20 μm; Leica 3050S). […] Immune complexes were detected with ALEXA 488-, or ALEXA 594-conjugated secondary antibodies (1:400; Molecular Probes). […]

For FGF1: growth factor FGF1 (R&D Systems), the Ki67-positive adult cardiomyocytes (adult cardiomyocytes) was 1.7±0.5%, the “left ventricular wall thinning (thinning index)” value ([1]; 2 weeks) was “significantly reduced” and the ventricular wall thinning ([1]; 3 month) was “significantly improved”. For the same substance, the “vessel density in the scar area” value [2] was “increases significantly”.
